In patent US20260232607A1, “COMPOSITIONS AND METHODS INVOLVING ISOLATED COMPOUNDS” (CuraSen Therapeutics, Inc., priority 2022, published 2026):
Read-outs that look alike come from different tables or passages of the source. One block for each compound: values may come before it.

Experiments:
[1] = target: T1, β1-AR (Homo sapiens, UniProt P08588); assay: cAMP Gs HTRF assay, inhibition of isoproterenol-stimulated cAMP, affinity by Leff-Dougall equation; format: cell-based; conditions: CHO-K1 cells, approximate EC80 isoproterenol
T1 construct: expressed in transfected cells; host or cells: CHO-K1
T1 sequence (P08588 whole entry): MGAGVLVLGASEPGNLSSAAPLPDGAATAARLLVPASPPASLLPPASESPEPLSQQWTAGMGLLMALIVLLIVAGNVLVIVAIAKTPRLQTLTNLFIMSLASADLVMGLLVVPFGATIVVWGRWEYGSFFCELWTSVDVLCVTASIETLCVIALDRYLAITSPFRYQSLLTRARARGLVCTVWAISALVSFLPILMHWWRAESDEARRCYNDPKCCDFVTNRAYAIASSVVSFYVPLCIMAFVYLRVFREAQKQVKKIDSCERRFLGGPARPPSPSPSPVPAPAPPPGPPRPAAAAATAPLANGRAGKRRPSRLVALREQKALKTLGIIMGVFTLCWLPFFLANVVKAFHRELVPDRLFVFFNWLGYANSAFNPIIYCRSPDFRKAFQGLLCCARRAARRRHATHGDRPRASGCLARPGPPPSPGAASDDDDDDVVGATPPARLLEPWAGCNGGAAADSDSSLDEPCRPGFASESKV
Excerpt: When cAMP turnover is reduced by blocking phosphodiesterases with IBMX, cAMP accumulation occurs, and this accumulation is detected in the cAMP Gs Homogenous Time Resolved Fluorescence (HTRF) assay. The HTRF assay is a competitive inhibition assay. Endogenous cAMP, produced by stimulated cells, competes with and prevents FRET between acceptor-labeled cAMP and donor-labeled cAMP antibody. Increases in endogenous cAMP therefore cause a reduction in HTRF signal, expressed as a ratio of FRET acceptor fluorescence and FRET donor fluorescence.
cAMP HTRF measurements were performed broadly according to the cAMP Gs dynamic kit protocol (Cisbio/Perkin Elmer, 62AM4PEC). Compounds were prepared at 2× final concentration to accommodate the subsequent addition of cells. […] Test compounds were serially diluted across the plate by nine 5-fold dilutions to generate a 10-point dose-response curve.
384 well plates containing compound were covered and stored at room temperature until resuspended cell addition.
D2-labelled cAMP (Acceptor) and Europium cryptate labelled cAMP antibody (Donor) (Cisbio/Perkin Elmer 62AM4PEC) were dissolved in water following the manufacturer's instructions, aliquoted and stored at −80° C.
CHO-K1 cells expressing exogenous β-ARs were resuspended using methods as described above, were recovered from flasks using PBS […] (Caisson PBL02) and centrifuged at 250×g for 5 minutes in a 50 ml falcon tube. PBS/versene was removed by aspiration and cells were resuspended in a minimal volume of room temperature 1× stimulation buffer+IBMX prior to cell counting. 5 ul cells of correct density (2000 cells/well) were added to compound in assay plates using a Multidrop Combi (Thermofisher). Cells and compounds were covered with a clear plate seal (Axygen PCR-SP) and incubated at 37° C., 5% CO2 for 30 minutes. cAMP accumulation was then stopped by adding 10 μL HTRF detection reagents in lysis buffer using the Multidrop Combi, plates were covered with an aluminum plate seal (Axygen PCR-AS-600) and agitated (Heidolph Titramax 1000, setting 600) for at least 2 hours, to allow competition between D2-cAMP and stimulated cAMP for the donor-labelled cAMP antibody to reach equilibrium.
HTRF was detected using a Tecan Spark plate reader, operated using SparkControl™ software, using the TR fluorescence intensity setting. Both donor and acceptor was excited at 320 nm, detected after 100 μs delay, with 400 μs integration time, and 50 flashes per read. […] To standardize reads across experiments, camera gain was manually set to 120 for donor detection, and 140 for acceptor detection.

[2] = In vivo PK in rats (IV and PO); conditions: male SD rat
Procedure: The rat pharmacokinetics studies of exemplary compounds NI-C and NI-D were conducted with male SD rats. These rats were typically about 6-8 weeks old, weighing 200 g to 300 g. Animals were fasted overnight and have free access to food 4 hours after dosing. A required volume of vehicle was added to reach the target concentration of the test article and vehicle component to prepare for the dosing. The dosing vehicle was PEG400 or 30% PEG400 in saline for IV, or 0.5% methylcellulose in water for PO. For IV dosing, the animals were administered intravenously via tail vein. For PO dosing, the animals were administered via oral gavage. After dosing, blood sample was collected (~0.2 mL per time point) through jugular vein or heart puncture. Blood of each sample was transferred into plastic micro centrifuge tubes containing EDTA-K2. Collection tubes with blood samples and anticoagulant were inverted several times for proper mixing of the tube contents and then placed on wet ice. The blood samples were centrifuged at 2000 g for 5 minutes at 4° C. to obtain plasma which was stored in a freezer at −75±15° C. prior to analysis. Samples were analyzed using LC-MS/MS. WinNonlin were used for pharmacokinetic calculations.

[3] = target: T2, OATP1A2 (Homo sapiens, UniProt P46721); assay: Uptake in OATP1A2-transfected cells versus control cells; conditions: 2-fold threshold
T2 sequence (P46721 1-670): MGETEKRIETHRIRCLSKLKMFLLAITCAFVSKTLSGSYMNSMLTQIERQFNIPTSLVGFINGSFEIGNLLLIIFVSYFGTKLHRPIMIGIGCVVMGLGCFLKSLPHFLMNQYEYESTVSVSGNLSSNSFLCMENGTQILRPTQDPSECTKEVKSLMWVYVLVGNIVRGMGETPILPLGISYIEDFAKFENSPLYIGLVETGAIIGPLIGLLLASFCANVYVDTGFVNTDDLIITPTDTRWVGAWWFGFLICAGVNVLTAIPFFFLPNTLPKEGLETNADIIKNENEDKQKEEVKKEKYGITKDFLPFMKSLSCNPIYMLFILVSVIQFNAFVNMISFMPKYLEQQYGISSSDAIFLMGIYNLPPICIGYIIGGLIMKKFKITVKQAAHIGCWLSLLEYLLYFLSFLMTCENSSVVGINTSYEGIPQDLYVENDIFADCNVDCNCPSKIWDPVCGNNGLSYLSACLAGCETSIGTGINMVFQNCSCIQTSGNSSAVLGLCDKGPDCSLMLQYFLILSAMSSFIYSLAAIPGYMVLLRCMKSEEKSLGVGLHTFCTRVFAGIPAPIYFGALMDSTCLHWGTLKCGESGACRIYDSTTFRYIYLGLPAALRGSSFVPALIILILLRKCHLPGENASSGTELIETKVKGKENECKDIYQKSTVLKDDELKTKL

[4] = target: T3, β2-AR (Homo sapiens, UniProt P07550); assay: Compound 03-5 β2-AR occupancy calculated with the Gaddum equation from measured plasma and CSF concentrations; conditions: alone, no nadolol or isomer competition
T3 sequence (P07550 whole entry): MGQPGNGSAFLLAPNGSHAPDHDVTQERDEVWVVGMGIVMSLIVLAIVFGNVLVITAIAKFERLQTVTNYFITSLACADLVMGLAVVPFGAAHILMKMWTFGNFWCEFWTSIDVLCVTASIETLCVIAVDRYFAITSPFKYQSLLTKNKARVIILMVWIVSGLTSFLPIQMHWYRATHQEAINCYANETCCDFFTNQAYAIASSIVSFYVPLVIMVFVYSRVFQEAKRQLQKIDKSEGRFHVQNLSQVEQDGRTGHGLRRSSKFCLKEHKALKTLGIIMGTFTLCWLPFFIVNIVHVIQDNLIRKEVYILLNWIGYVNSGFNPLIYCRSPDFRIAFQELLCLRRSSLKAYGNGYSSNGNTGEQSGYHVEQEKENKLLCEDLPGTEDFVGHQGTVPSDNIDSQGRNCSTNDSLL

[5] = target: T3, β2-AR; assay: Radioligand binding; conditions: read-out: β2-AR affinity by radioligand binding
Excerpt: In contrast, NI-C blocks the fraction of peripheral β2-AR receptors bound by Compound 03-5 to 0.02 while maintaining the fraction of central β2-AR receptors bound by Compound 03-5 to 0.21.

[6] = clinical; conditions: human, CSF/plasma
[7] = CSF and plasma concentrations in healthy human subjects dosed with Compound 03-5 and nadolol; conditions: for CSF/Plasma ratio: Day 6; for Concentration in CSF / Concentration in plasma: Day 6, 2 hrs after Compound 03-5 (15 mg), nadolol 20 mg
[8] = target: T2, OATP1A2

Structure (SMILES): CC(C)(C)NCC(O)COc1cccc2c1CC(O)C(O)C2 (single isomer, unassigned) [NI-A, (RSR)-nadolol]
Ki [1]: 891 nM
pKi [1]: 6.05 ± 0.10

Structure (SMILES): CC(C)(C)NCC(O)COc1cccc2c1CC(O)C(O)C2 (single isomer, unassigned) [NI-B, (RRS)-nadolol]
Ki [1]: 354 nM
pKi [1]: 6.45 ± 0.10

Structure (SMILES): CC(C)(C)NCC(O)COc1cccc2c1CC(O)C(O)C2 (single isomer, unassigned) [NI-C, (SRS)-nadolol]
AUCInf ([2]; 1 mg/kg iv): 488 ng·h/mL
C0 ([2]; 1 mg/kg iv): 1142 ng/mL
CL ([2]; 1 mg/kg iv): 34.5 mL/min/kg
T1/2 ([2]; 1 mg/kg iv): 2.87 h
Vss ([2]; 1 mg/kg iv): 4.74 L/kg
AUCInf ([2]; 5 mg/kg po): 200 ng·h/mL
Cmax ([2]; 5 mg/kg po): 37.9 ng/mL
MRT ([2]; 5 mg/kg po): 4.12 h
Tmax ([2]; 5 mg/kg po): 1.08 h
Bioavailability ([2]; 5 mg/kg po vs 1 mg/kg iv): 8.21%
Ki [1]: 4.6 nM
pKi [1]: 8.34 ± 0.12

Structure (SMILES): CC(C)(C)NCC(O)COc1cccc2c1CC(O)C(O)C2 (single isomer, unassigned) [NI-D, (SSR)-nadolol]
Ki [1]: 2.6 nM
pKi [1]: 8.58 ± 0.18

Structure (SMILES): CC(C)(C)NCC(O)COc1cccc2c1CC(O)C(O)C2 (centres unmarked) [(SRS)-NADOLOL]
Substrate for OATP1A2 [3]: appear to be substrates for OATP1A2

Structure (SMILES): CC(C)(C)NCC(O)COc1cccc2c1CC(O)C(O)C2 (centres unmarked) [(SSR)-NADOLOL]
Substrate for OATP1A2 [3]: does not appear to be a substrate for OATP1A2

Fraction of β2-AR receptors bound by Compound 03-5 in the CSF [4]: 0.29
Fraction of β2-AR receptors bound by Compound 03-5 in the periphery [4]: 0.46
Ki [5]: 374 nM
Kp [6]: 0.47
Kp ([6]; oral): 0.42
CSF/Plasma ratio ([7]; Average of 4 subjects): 47%
Concentration in CSF ([7]; Average of 4 subjects): 34.675 ng/mL
Concentration in plasma ([7]; Average of 4 subjects): 74.25 ng/mL
Concentration in CSF ([7]; Subject A): 37 ng/mL
Concentration in plasma ([7]; Subject A): 87.4 ng/mL
CSF/Plasma ratio ([7]; Subject B): 44%
Concentration in CSF ([7]; Subject B): 27.1 ng/mL
Concentration in plasma ([7]; Subject B): 61.2 ng/mL
CSF/Plasma ratio ([7]; Subject C): 42%
Concentration in CSF ([7]; Subject C): 30.3 ng/mL
Concentration in plasma ([7]; Subject C): 72.9 ng/mL
CSF/Plasma ratio ([7]; Subject D): 59%
Concentration in CSF ([7]; Subject D): 44.3 ng/mL
Concentration in plasma ([7]; Subject D): 75.5 ng/mL
Structure (SMILES): CC(C)(C)NC[C@H](O)c1cccc(C#N)n1 [Compound 03-5]

Structure (SMILES): CC(C)(C)NCC(O)COc1cccc2c1CC(O)C(O)C2 (centres unmarked) [Nadolol, reference compound]
Ki [1]: 5.5 nM
Substrate for OATP1A2 [8]: appear to be substrates for OATP1A2
